Results as given in article PMC9732439, “Biochemical and in silico inhibition of bovine and human carbonic anhydrase-II by 1H-1,2,3-triazole analogs” (Frontiers in Chemistry, 2022).

What was measured:
bCA-II [1] = molecular target: T1, bCA-II (Bos taurus, UniProt P00921); assay: In vitro carbonic anhydrase inhibition assay (p-NPA, spectrophotometric), bCA-II; format: biochemical, bovine; conditions: for IC50 / bCA-II IC50 ± S.E.M.: bovine CA-II, substrate p-NPA, 15 min at 25°C, triplicate; for IC50: read-out: bCA-II IC50 ± S.E.M.
T1 sequence (P00921 whole entry): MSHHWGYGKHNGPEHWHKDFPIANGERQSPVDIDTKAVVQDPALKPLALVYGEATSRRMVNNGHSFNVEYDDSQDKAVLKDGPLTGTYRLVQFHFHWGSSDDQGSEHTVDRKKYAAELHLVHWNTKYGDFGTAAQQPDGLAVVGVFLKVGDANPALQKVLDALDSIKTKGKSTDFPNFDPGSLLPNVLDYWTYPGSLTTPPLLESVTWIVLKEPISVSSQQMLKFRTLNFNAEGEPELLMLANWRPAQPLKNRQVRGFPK
Description: Total assay volume comprises 140 µl of HEPES-Tris buffer, 20 µl of bCA-II solution (0.1 mg/ml HEPES-Tris buffer), 20 µl of the test compound (prepared in DMSO), and 20 µl p-NPA (0.7 mM, methanol). First, the test compound and enzyme were incubated for 15 min at 25°C; after incubation, in quick sequence, substrate was added to each experiment in 96-well plates, which were placed in the ^xMARK microplate spectrophotometer (Bio-Rad, United States), and the absorbance was set to 400 nm with 1 min interval time. The activity of the controlled compound was taken as 100%.

hCA-II [2] = molecular target: T2, hCA-II (Homo sapiens, UniProt P00918); assay: In vitro carbonic anhydrase inhibition assay (p-NPA, spectrophotometric), hCA-II; format: biochemical; conditions: for IC50 / hCA-II IC50 ± S.E.M.: human CA-II, substrate p-NPA, triplicate; for IC50: read-out: hCA-II IC50 ± S.E.M.; for Selectivity for hCA-II: hCA-II versus bCA-II
bCA-II [3] = molecular target: T1, bCA-II; assay: Kinetics study against bCA-II; format: biochemical, bovine; conditions: for Kmapp: Michaelis–Menten constant in the presence of inhibitor; for Vmaxapp: maximum velocity in the presence of inhibitor; for Ki: read-out: Ki ± SEM
Description: (§1) Soon after the incubation, various concentrations of substrate were added to the reaction medium (01–0.8 mM). The enzyme activity was measured under steady-state conditions by observing changes in absorbance for 30 min at 400 nm on the microtiter plate reader (Bio-Rad X-Mark^Tm molecular spectrometer, United States). The results were analyzed and processed by Grafit 7 software (Erithacus Software Limited, United Kingdom). Different kinetic parameters of enzymes (e.g., Vmax, Km, Vmaxapp, and Kmapp) and values of correlation coefficients, intercepts, slopes, and their standard error mean were calculated by the linear regression graph by Grafit 7. Linear regression analysis was used to calculate the “best fit” line or curve through a dataset by minimizing the deviation of the data from the curve.

hCA-II [4] = molecular target: T2, hCA-II; assay: Kinetics study against hCA-II; format: biochemical; conditions: for Kmapp: Michaelis–Menten constant in the presence of inhibitor; for Vmaxapp: maximum velocity in the presence of inhibitor; for Ki: read-out: Ki ± SEM
Description: as §1

IC50 (bCA-II [1]) [µM]	IC50 (hCA-II [2]) [µM]	hCA-II IC50 ± S.E.M. (hCA-II [2])	bCA-II IC50 ± S.E.M. (bCA-II [1])	Compound	also measured
25.7 ± 0.2	21 ± 1	–	–	COc1cc(-c2ccc(C)cc2)ccc1O[C@H](C)Cn1cc(-c2ccc(C(F)(F)F)cc2)nn1 [Compound 9a]	–
28.8 ± 0.4	–	Inactive	–	COc1cc(-c2ccc(F)cc2)ccc1O[C@H](C)Cn1cc(-c2ccc(C(F)(F)F)cc2)nn1 [Compound 9d]	–
–	18.5 ± 0.4	–	Inactive	COc1cc(-c2ccc(Cl)cc2)ccc1O[C@H](C)Cn1cc(-c2ccc(F)cc2)nn1 [Compound 9j]	–
29 ± 1	–	Inactive	–	COc1cc(-c2ccc(C(C)=O)cc2)ccc1O[C@H](C)Cn1cc(-c2ccc(F)cc2)nn1 [Compound 9r]	Selectivity for bCA-II (bCA-II [1]; bCA-II versus hCA-II): selective inhibitors of bCA-II
12.3 ± 0.4	25.1 ± 0.4	–	–	COC(=O)c1cn(C[C@@H](C)Oc2ccc(Br)cc2OC)nn1 [Compound 7d]	–
11.1 ± 0.2	10.9 ± 1	–	–	COc1cc(-c2ccc([N+](=O)[O-])cc2)ccc1O[C@H](C)Cn1cc(-c2ccc(F)cc2)nn1 [Compound 9i]	Type of inhibition (bCA-II [3]): competitive inhibition; Kmapp (bCA-II [3]): 5.6 mM; Vmaxapp (bCA-II [3]): 23.2 (µmol/min)^−1; Ki (bCA-II [3]): 9.4 ± 0.3 µM; Type of inhibition (hCA-II [4]): competitive inhibition; Kmapp (hCA-II [4]): 3.9 mM; Vmaxapp (hCA-II [4]): 26.1 (µmol/min)^−1; Ki (hCA-II [4]): 8.1 ± 0.04 µM
20.4 ± 0.3	22.8 ± 0.2	–	–	COc1cc(Br)ccc1O[C@H](C)Cn1cc(-c2ccc(F)cc2)nn1 [Compound 7c]	–
88.4 ± 0.3	–	Inactive	–	COc1cc(-c2ccccc2)ccc1O[C@H](C)Cn1cc(-c2ccc(F)cc2)nn1 [Compound 9f]	–
39.1 ± 0.3	22.4 ± 0.4	–	–	COc1ccc(-c2ccc(O[C@H](C)Cn3cc(-c4ccc(C(F)(F)F)cc4)nn3)c(OC)c2)cc1 [Compound 9b]	–
–	12.5 ± 0.6	–	Inactive	COc1cc(-c2ccccc2C(F)(F)F)ccc1O[C@H](C)Cn1cc(-c2ccc(C(F)(F)F)cc2)nn1 [Compound 9c]	Selectivity for hCA-II (hCA-II [2]): selective inhibitors of the hCA-II
–	21.3 ± 0.8	–	Inactive	COc1cc(-c2ccc(C#N)cc2)ccc1O[C@H](C)Cn1cc(-c2ccc(F)cc2)nn1 [Compound 9k]	Selectivity for hCA-II (hCA-II [2]): selective inhibitors of the hCA-II
14.1 ± 0.2	13.6 ± 1	–	–	COc1cc(-c2c(F)cccc2F)ccc1O[C@H](C)Cn1cc(-c2ccc(F)cc2)nn1 [Compound 9o]	Type of inhibition (bCA-II [3]): competitive inhibition; Kmapp (bCA-II [3]): 4.9 mM; Vmaxapp (bCA-II [3]): 24.6 (µmol/min)^−1; Ki (bCA-II [3]): 11.3 ± 0.17 µM; Type of inhibition (hCA-II [4]): competitive inhibition; Kmapp (hCA-II [4]): 4.2 mM; Vmaxapp (hCA-II [4]): 25.3 (µmol/min)^−1; Ki (hCA-II [4]): 6.5 ± 0.19 µM
41 ± 0.4	27.4 ± 0.9	–	–	COc1cc(-c2cc(C(F)(F)F)cc(C(F)(F)F)c2)ccc1O[C@H](C)Cn1cc(-c2ccc(F)cc2)nn1 [Compound 9m]	–
–	–	Inactive	Inactive	COc1cc(-c2ccc3ccccc3c2)ccc1O[C@H](C)Cn1cc(-c2ccc(F)cc2)nn1 [Compound 9q]	–
12.9 ± 1	–	Inactive	–	COc1ccc(-c2ccc(O[C@H](C)Cn3cc(-c4ccc(F)cc4)nn3)c(OC)c2)cc1 [Compound 9h]	–
21.4 ± 0.1	35.3 ± 0.6	–	–	COc1cc(Br)ccc1O[C@H](C)Cn1cc(-c2ccccc2)nn1 [Compound 7a]	–
20.6 ± 0.3	45.1 ± 0.5	–	–	COc1cc(Br)ccc1O[C@H](C)Cn1cc(-c2ccc(C(F)(F)F)cc2)nn1 [Compound 7b]	–
16.4 ± 0.4	–	Inactive	–	COc1cc(-c2ccc(C)cc2)ccc1O[C@H](C)Cn1cc(-c2ccc(F)cc2)nn1 [Compound 9g]	–
–	–	Inactive	Inactive	COc1cc(-c2cc3ccccc3s2)ccc1O[C@H](C)Cn1cc(-c2ccc(F)cc2)nn1 [Compound 9s]	–
22.4 ± 0.4	23 ± 0.3	–	–	COc1cc(-c2ccc(C=O)cc2)ccc1O[C@H](C)Cn1cc(-c2ccc(F)cc2)nn1 [Compound 9n]	–
–	–	Inactive	Inactive	COc1cc(-c2ccc(F)cc2)ccc1O[C@H](C)Cn1cc(-c2ccc(F)cc2)nn1 [Compound 9l]	–
–	19.3 ± 0.2	–	Inactive	COc1cc(-c2ccc(F)c(F)c2F)ccc1O[C@H](C)Cn1cc(-c2ccc(F)cc2)nn1 [Compound 9p]	Selectivity for hCA-II (hCA-II [2]): selective inhibitors of the hCA-II
17.8 ± 0.8	–	Inactive	–	COc1cc(-c2ccc([N+](=O)[O-])cc2)ccc1O[C@H](C)Cn1cc(-c2ccc(C(F)(F)F)cc2)nn1 [Compound 9e]	–
